Test system: Mycobacterium tuberculosis
Assay: Antitubercular activity against Mycobacterium tuberculosis H37Rv assessed as growth inhibition by micro plate alamar blue assay
Type: functional

SMILES | MIC
CN(C)/C=C(\C#N)c1cc(-c2ccc(Br)cc2)[nH]n1 | > 200 µM
Cc1ccc(-c2cc(CC#N)n[nH]2)cc1 | > 200 µM
COc1ccc2c(c1)CCC1C2=NN(C(C)=O)C1c1ccc(OCCN(C)C)cc1 (configuration not stated) | 200 µM
CCOC(=O)CCCCOc1ccc(-c2nc(N)nc3c2CCc2cc(OC)ccc2-3)cc1 | 200 µM
COc1ccc2c(c1)CCc1c(-c3ccc(O)cc3)nc(N)nc1-2 | > 200 µM
N#Cc1c(N2CCCCC2)cc(-c2ccc(Br)cc2)nc1-c1ccccc1 | > 200 µM
COc1ccc(-c2cc(CC#N)n[nH]2)cc1 | 200 µM
COc1ccc(-c2cc(/C(C#N)=C/N(C)C)n[nH]2)cc1 | 100 µM
N#CCc1cc(-c2ccc(Br)cc2)[nH]n1 | 25 µM
CO[C@H]1/C=C/O[C@@]2(C)Oc3c(C)c(O)c4c(O)c(c(/C=N/N5CCN(C)CC5)c(O)c4c3C2=O)NC(=O)/C(C)=C\C=C\[C@H](C)[C@H](O)[C@@H](C)[C@@H](O)[C@@H](C)[C@H](OC(C)=O)[C@@H]1C [RIFAMPIN] | 2 µM
CC1=NN(C(=O)c2cc(-c3ccc(Cl)cc3)n[nH]2)C(=O)/C1=N/Nc1cccc(F)c1 | 0.35 µg/mL
COc1ccc2c(c1)CCc1c(-c3ccc(OCCCCC(=O)NN)cc3)nc(N)nc1-2 | 200 µM
N#Cc1c(N2CCCCC2)cc(-c2ccccc2)nc1-c1ccccc1 | > 200 µM
COc1ccc2c(c1)CCc1c(-c3ccc(OCCCC(=O)NN)cc3)nc(N)nc1-2 | 200 µM
COc1ccc(-c2cc(N3CCCCC3)c(C#N)c(-c3ccccc3)n2)cc1 | > 200 µM
CCOC(=O)CCCOc1ccc(-c2nc(N)nc3c2CCc2cc(OC)ccc2-3)cc1 | 50 µM
CN(C)/C=C(\C#N)c1cc(-c2ccc(Cl)cc2)[nH]n1 | > 200 µM
COc1ccc(-c2cc3ccnc(-c4ccccc4)n3n2)cc1 | > 200 µM
COc1ccc2c(c1)CCC1C2=NN(C(C)=O)C1c1ccc(OC(C)CN(C)C)cc1 (configuration not stated) | 200 µM
COc1ccc2c(c1)CCc1c(-c3ccc(OCCCCCC(=O)NN)cc3)nc(N)nc1-2 | 200 µM
CCSc1nc(Cl)c(C#N)c(-c2ccc(F)cc2F)n1 | 0.78 µg/mL

SMILES | MIC
COc1ccc2c(c1)CCc1c(-c3ccc(OCCN4CCCC4)cc3)nc(N)nc1-2 | 200 µM
COc1ccc2c(c1)CCc1c(-c3ccc(OCCN(C)C)cc3)nc(N)nc1-2 | 100 µM
CN(C)/C=C(\C#N)c1cc(-c2ccccc2)[nH]n1 | 200 µM
Cc1ccc(-c2cc(N3CCCCC3)c(C#N)c(-c3ccccc3)n2)cc1 | > 200 µM
CCN(CC)CCOc1ccc(C2C3CCc4cc(OC)ccc4C3=NN2C(C)=O)cc1 (configuration not stated) | 200 µM
CCOC(=O)/C(C#N)=C(\CC(=O)c1ccccc1)N1CCCCC1 | > 200 µM
CN[C@@H]1[C@H](O[C@H]2[C@H](O[C@H]3[C@H](O)[C@@H](O)[C@H](N=C(N)N)[C@@H](O)[C@@H]3N=C(N)N)O[C@@H](C)[C@]2(O)C=O)O[C@@H](CO)[C@H](O)[C@H]1O [STREPTOMYCIN] | 6 µM
O=c1nc2ccccn2cc1-c1cc(-c2ccccc2)[nH]n1 | > 200 µM
CCOC(=O)CCCCCOc1ccc(-c2nc(N)nc3c2CCc2cc(OC)ccc2-3)cc1 | 200 µM
N#CCc1cc(-c2ccc(Cl)cc2)[nH]n1 | > 200 µM
COc1ccc2c(c1)CCc1c(-c3ccc(OCCN4CCCCC4)cc3)nc(N)nc1-2 | 50 µM
Cc1ccc(-c2cc(/C(C#N)=C/N(C)C)n[nH]2)cc1 | > 200 µM
NC(=O)c1c(N2CCCCC2)cc(-c2ccc(Br)cc2)nc1-c1ccccc1 | > 200 µM
COc1ccc2c(c1)CCC1C2=NN(C(C)=O)C1c1ccc(OCCN2CCCC2)cc1 (configuration not stated) | 200 µM
Cc1ccc(-c2cc(N3CCOCC3)c(C#N)c(-c3ccccc3)n2)cc1 | > 200 µM
NNC(=O)c1ccncc1 [ISONIAZID] | 0.2 µM
N#Cc1c(N2CCCCC2)cc(-c2ccc(Cl)cc2)nc1-c1ccccc1 | > 200 µM
COc1ccc2c(c1)CCc1c(-c3ccc(OC(C)CN(C)C)cc3)nc(N)nc1-2 (configuration not stated) | 200 µM
COc1ccc2c(c1)CCC1C2=NN(C(C)=O)C1c1ccc(OCCN2CCCCC2)cc1 (configuration not stated) | > 200 µM
COc1ccc2c(c1)CCC1C2=NN(C(C)=O)C1c1ccc(O)cc1 (configuration not stated) | > 200 µM

Test system: not listed separately
Assay: Safety index, ratio of CC50 for human THP1 cells to MIC for Mycobacterium tuberculosis H37Rv
Type: toxicity, cell-based, THP-1

SMILES | selectivity ratio
N#CCc1cc(-c2ccc(Br)cc2)[nH]n1 | 8

Test system: not listed separately
Assay: Cytotoxicity against human THP1 cells after 24 hrs by MTT assay
Type: cell-based, THP-1

SMILES | CC50 at 24 h
COc1ccc(-c2cc(/C(C#N)=C/N(C)C)n[nH]2)cc1 | > 200 µM
N#CCc1cc(-c2ccc(Br)cc2)[nH]n1 | > 200 µM
CCOC(=O)CCCOc1ccc(-c2nc(N)nc3c2CCc2cc(OC)ccc2-3)cc1 | 200 µM
COc1ccc2c(c1)CCc1c(-c3ccc(OCCN(C)C)cc3)nc(N)nc1-2 | 200 µM
COc1ccc2c(c1)CCc1c(-c3ccc(OCCN4CCCCC4)cc3)nc(N)nc1-2 | 200 µM

From ChEMBL document CHEMBL2434836, “Studies on substituted benzo[h]quinazolines, benzo[g]indazoles, pyrazoles, 2,6-diarylpyridines as anti-tubercular agents” (Bioorg Med Chem Lett, 2013)
